The cell lines below were run with c1ccc2c(CCNc3ccc(Nc4ccncc4)cc3)c[nH]c2c1 [Serdemetan] + COc1cc2c(Oc3ccc(NC(=O)C4(C(=O)Nc5ccc(F)cc5)CC4)cc3F)ccnc2cc1OCCCN1CCOCC1 [Foretinib] (partner 0.25 µM) (assay: relative viability (nuclei count vs DMSO), 5 days (fraction); higher = more cells survive). Settings: first compound 0.04 µM.
Method in brief: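 Nuclei were stained with Hoechst during a one-step fixation (final 0.05% Triton X-100, 1% formaldehyde, 1 ug/ml Hoechst) carried out 5 days after dosing, then counted on 4× images. The cells, lung cancer lines in 1536-well plates, had been dosed by pin tool the day after seeding with one drug alone or a fixed anchor-drug dose plus five library-drug doses (not always all listed) in √10 steps. Relative viability is the nuclei count in treated wells divided by that in vehicle wells, and each value is the median of duplicate plates.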
NCI-H1623 showed a relative viability of 0.901. For NCI-H727, the relative viability was 0.831. Work on NCI-H1650 yielded a relative viability of 1. EBC-1 gave a relative viability of 0.12. NCI-H1703 showed a relative viability of 0.335. For NCI-H1993, the relative viability was 0.888. In the case of SW 1573, the relative viability is reported as 0.898. For NCI-H838, the relative viability was 1.03. Cell Line LCLC-103H has a relative viability of 0.697. In the case of NCI-H520, the relative viability is reported as 0.668. NCI-H2126 gave a relative viability of 1.23. For EMC-BAC-2, the relative viability was 0.969. NCI-H2085 gave a relative viability of 1. In the case of Calu-6, the relative viability is reported as 0.866. HCC-366 was tested, and the relative viability was 0.948. Work on NCI-H1666 yielded a relative viability of 0.967. NCI-H596 gave a relative viability of 0.87. LK-2 was tested, and the relative viability was 1.29. For NCI-H2087, the relative viability was 1.01. Cell Line NCI-H2342 has a relative viability of 1.22. Cell Line SK-MES-1 has a relative viability of 0.877. H3255 was tested, and the relative viability was 1.02. Cell Line IA-LM has a relative viability of 1.04. A549 showed a relative viability of 0.964. In the case of SW 900, the relative viability is reported as 0.79. NCI-H661 gave a relative viability of 1. With NCI-H1299 the relative viability was 1.05. NCI-H1563 was tested, and the relative viability was 0.82. ABC-1 was tested, and the relative viability was 0.855. Work on NCI-H358 yielded a relative viability of 0.641. In the case of NCI-H650, the relative viability is reported as 0.986.

Same assay, conditions: first compound 0.1265 µM
NCI-H1623 was tested, and the relative viability was 0.917. NCI-H727 gave a relative viability of 0.737. NCI-H1650 gave a relative viability of 1.21. With EBC-1 the relative viability was 0.123. Cell Line NCI-H1703 has a relative viability of 0.338. With NCI-H1993 the relative viability was 0.813. For SW 1573, the relative viability was 0.815. With NCI-H838 the relative viability was 0.983. LCLC-103H was tested, and the relative viability was 0.81. NCI-H520 gave a relative viability of 0.737. NCI-H2126 gave a relative viability of 1.13. EMC-BAC-2 showed a relative viability of 1.02. Work on NCI-H2085 yielded a relative viability of 0.899. Calu-6 gave a relative viability of 0.819. HCC-366 was tested, and the relative viability was 0.812. NCI-H1666 gave a relative viability of 0.909. Cell Line NCI-H596 has a relative viability of 0.703. LK-2 showed a relative viability of 1.13. For NCI-H2087, the relative viability was 0.92. NCI-H2342 gave a relative viability of 1. Work on SK-MES-1 yielded a relative viability of 0.915. With H3255 the relative viability was 0.845. IA-LM showed a relative viability of 1.06. Cell Line A549 has a relative viability of 0.969. With SW 900 the relative viability was 0.552. Work on NCI-H661 yielded a relative viability of 1.01. In the case of NCI-H1299, the relative viability is reported as 1.07. NCI-H1563 showed a relative viability of 0.897. Work on ABC-1 yielded a relative viability of 1.08. NCI-H358 showed a relative viability of 0.773. For NCI-H650, the relative viability was 1.01.

Same assay, conditions: first compound 0.4 µM
For NCI-H1623, the relative viability was 0.698. With NCI-H727 the relative viability was 1.32. NCI-H1650 was tested, and the relative viability was 0.989. EBC-1 was tested, and the relative viability was 0.107. NCI-H1703 was tested, and the relative viability was 0.383. Cell Line NCI-H1993 has a relative viability of 0.692. In the case of SW 1573, the relative viability is reported as 0.877. With NCI-H838 the relative viability was 1.02. Work on LCLC-103H yielded a relative viability of 0.647. Cell Line NCI-H520 has a relative viability of 0.874. NCI-H2126 gave a relative viability of 1.03. For EMC-BAC-2, the relative viability was 1.04. For NCI-H2085, the relative viability was 1. Calu-6 was tested, and the relative viability was 0.839. HCC-366 showed a relative viability of 0.197. With NCI-H1666 the relative viability was 0.937. With NCI-H596 the relative viability was 0.684. In the case of LK-2, the relative viability is reported as 1.47. In the case of NCI-H2087, the relative viability is reported as 0.858. NCI-H2342 gave a relative viability of 0.882. For SK-MES-1, the relative viability was 0.842. H3255 gave a relative viability of 0.833. IA-LM gave a relative viability of 0.877. A549 was tested, and the relative viability was 1.02. In the case of SW 900, the relative viability is reported as 0.928. In the case of NCI-H661, the relative viability is reported as 1.02. With NCI-H1299 the relative viability was 1.02. With NCI-H1563 the relative viability was 0.745. Cell Line ABC-1 has a relative viability of 0.766. Cell Line NCI-H358 has a relative viability of 0.732. NCI-H650 gave a relative viability of 1.08.

Same assay, conditions: first compound 1.265 µM
In the case of NCI-H1623, the relative viability is reported as 0.756. NCI-H727 gave a relative viability of 0.634. In the case of NCI-H1650, the relative viability is reported as 1.14. EBC-1 showed a relative viability of 0.124. With NCI-H1703 the relative viability was 0.289. NCI-H1993 was tested, and the relative viability was 0.76. SW 1573 gave a relative viability of 0.668. NCI-H838 was tested, and the relative viability was 0.951. Work on LCLC-103H yielded a relative viability of 0.556. Work on NCI-H2126 yielded a relative viability of 1.01. Cell Line EMC-BAC-2 has a relative viability of 0.809. In the case of NCI-H2085, the relative viability is reported as 0.936. For Calu-6, the relative viability was 0.567. In the case of HCC-366, the relative viability is reported as 0.073. For NCI-H1666, the relative viability was 0.591. NCI-H596 gave a relative viability of 0.355. Work on LK-2 yielded a relative viability of 1.16. Work on NCI-H2087 yielded a relative viability of 0.447. NCI-H2342 was tested, and the relative viability was 0.504. For SK-MES-1, the relative viability was 0.847. Cell Line H3255 has a relative viability of 0.727. Cell Line IA-LM has a relative viability of 0.999. For A549, the relative viability was 0.627. With SW 900 the relative viability was 0.687. Work on NCI-H661 yielded a relative viability of 0.924. For NCI-H1299, the relative viability was 0.92. Work on NCI-H1563 yielded a relative viability of 0.69. With ABC-1 the relative viability was 0.604. NCI-H358 gave a relative viability of 0.549. NCI-H650 was tested, and the relative viability was 0.936.

Same assay, conditions: first compound 4 µM
NCI-H1623 was tested, and the relative viability was 0.703. NCI-H727 gave a relative viability of 0.437. With NCI-H1650 the relative viability was 0.658. Cell Line EBC-1 has a relative viability of 0.129. NCI-H1703 was tested, and the relative viability was 0.341. NCI-H1993 gave a relative viability of 0.672.
